The target of one assay is T1, DDR2 (Homo sapiens, UniProt Q16832).
T1 sequence (Q16832 22-855): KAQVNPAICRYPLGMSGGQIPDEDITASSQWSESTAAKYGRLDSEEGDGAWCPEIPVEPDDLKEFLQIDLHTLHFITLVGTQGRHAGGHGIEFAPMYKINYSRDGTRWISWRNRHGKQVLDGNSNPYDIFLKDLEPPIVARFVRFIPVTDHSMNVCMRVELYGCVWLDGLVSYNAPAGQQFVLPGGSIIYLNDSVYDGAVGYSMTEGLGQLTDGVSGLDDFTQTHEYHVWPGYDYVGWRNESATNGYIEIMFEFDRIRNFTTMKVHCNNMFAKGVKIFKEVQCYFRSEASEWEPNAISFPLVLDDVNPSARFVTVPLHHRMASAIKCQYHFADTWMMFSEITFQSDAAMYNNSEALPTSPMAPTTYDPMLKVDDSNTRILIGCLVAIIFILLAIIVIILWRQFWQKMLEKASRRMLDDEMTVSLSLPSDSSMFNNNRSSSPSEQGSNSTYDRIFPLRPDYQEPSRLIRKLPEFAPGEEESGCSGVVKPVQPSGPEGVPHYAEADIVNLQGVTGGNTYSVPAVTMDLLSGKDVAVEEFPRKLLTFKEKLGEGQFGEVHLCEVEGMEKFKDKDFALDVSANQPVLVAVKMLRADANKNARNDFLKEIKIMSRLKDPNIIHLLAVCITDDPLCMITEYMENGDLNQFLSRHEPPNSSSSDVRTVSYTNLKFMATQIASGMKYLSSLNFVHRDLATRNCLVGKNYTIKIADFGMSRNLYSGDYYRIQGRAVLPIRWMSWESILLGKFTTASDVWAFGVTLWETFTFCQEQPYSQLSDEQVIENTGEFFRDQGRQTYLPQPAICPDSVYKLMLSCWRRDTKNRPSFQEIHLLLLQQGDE
The assay can be described thus: DDR2 binding assay (LanthaScreen Europium Kinase Binding assay). Also on record: purchased Life Technologies. The procedure:
(§1) DDR1 and DDR2 binding assays were performed using Life Technologies LanthaScreen™ Europium Kinase Binding assay. The compounds were incubated with 5 nM DDR1 (Carna Biosciences) or 5 nM DDR2 (Life Technologies) for 1 hour at room temperature in white 384-well OptiPlate (PerkinElmer), containing 20 nM or 10 nM Kinase Tracer 178 respectively and 2 nM Europium labelled anti-GST antibody (Life Technologies) in assay buffer (50 mM HEPES pH 7.5, 10 mM MgCl2, 1 mM EGTA and 0.01% BRIJ35).
(§2) The ratio of fluorescence emission 665 nm/615 nm after excitation at 340 nm was obtained using the Tecan Spark 20M plate reader. IC50 values were determined in GraphPad Prism 7.0 software, using 4 parameter model: log(inhibitor) vs. response. IC50 values were converted in Ki using the Cheng-Prusoff equation

For assay [1], the target named is T2, DDR1 (Homo sapiens, UniProt Q08345). The assay can be described thus: DDR1 binding assay (LanthaScreen Europium Kinase Binding assay). More on the design: purchased Carna Biosciences. The procedure: as §1, §2
T2 sequence (Q08345 19-913): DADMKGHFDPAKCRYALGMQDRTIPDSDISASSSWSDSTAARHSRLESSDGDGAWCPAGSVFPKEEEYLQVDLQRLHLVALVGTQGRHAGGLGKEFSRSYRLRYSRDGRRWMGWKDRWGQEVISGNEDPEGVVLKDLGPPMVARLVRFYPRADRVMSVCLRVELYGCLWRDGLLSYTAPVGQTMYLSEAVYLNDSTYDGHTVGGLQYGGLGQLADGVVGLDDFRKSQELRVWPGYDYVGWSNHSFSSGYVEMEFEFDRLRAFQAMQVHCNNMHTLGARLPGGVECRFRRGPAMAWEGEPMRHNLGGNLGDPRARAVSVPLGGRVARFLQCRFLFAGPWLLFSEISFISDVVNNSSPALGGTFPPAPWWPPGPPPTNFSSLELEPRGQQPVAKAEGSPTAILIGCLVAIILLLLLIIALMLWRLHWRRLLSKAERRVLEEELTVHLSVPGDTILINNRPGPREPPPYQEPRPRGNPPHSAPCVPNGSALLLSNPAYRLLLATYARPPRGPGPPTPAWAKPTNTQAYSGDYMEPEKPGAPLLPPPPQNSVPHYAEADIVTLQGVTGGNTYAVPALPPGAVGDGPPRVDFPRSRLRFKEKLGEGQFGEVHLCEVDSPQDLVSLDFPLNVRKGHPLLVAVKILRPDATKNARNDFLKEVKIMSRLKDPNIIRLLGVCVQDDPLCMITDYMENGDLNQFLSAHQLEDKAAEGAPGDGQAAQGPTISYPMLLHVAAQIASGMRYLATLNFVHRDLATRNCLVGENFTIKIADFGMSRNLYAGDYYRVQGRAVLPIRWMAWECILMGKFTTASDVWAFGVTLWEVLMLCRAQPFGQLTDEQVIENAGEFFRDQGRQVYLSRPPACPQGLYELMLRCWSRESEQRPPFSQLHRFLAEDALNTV
In general terms: In TR-FRET formats the signal depends on donor and acceptor labels being close together.

Assay [2] addresses T2, DDR1. The assay can be described thus: DDR1 cell based assay (PathHunter U2OS DDR1 assay). More on the design: host or cells: U2OS-DDR1 (PathHunter). Particulars: U2OS-DDR1 cells, bovine Type II Collagen 20 μg/ml. The procedure: The inhibition of DDR1 receptor activation by compounds was evaluated by PathHunter® U2OS DDR1 assay (Eurofins DiscoverX), according to the manufacturer's instructions. Briefly, U2OS-DDR1 cells were seeded in white 384-well plates at a density of 5000 cells/well and incubated for 2 hours at 37° C. and 5% CO2. Cells were then treated with compounds at different concentrations and incubated for 30 minutes, before stimulation with bovine Type II Collagen 20 μg/ml and incubation overnight at 37° C. and 5% CO2. PathHunter Detection Reagents were prepared according to the protocol provided by DiscoverX and 20 μl/well of this mix were added to each well. After incubating the plates for 1 hour at room temperature in the dark, luminescence signal was acquired with a plate reader. Raw data were normalized to vehicle control (0% for normalization) and positive control (100% for normalization; cells treated with 20 μg/ml collagen II) and IC50 parameters were calculated in GraphPad Prism 8.0 software, using sigmoidal dose-response curve fitting with variable slope.

Where [3] appears, read: binding assay, 5 nM DDR2, 10 nM Kinase Tracer 178, Ki from IC50 by Cheng-Prusoff, read-out: Ki DDR2.
The mark [4] stands for this setting: binding assay, 5 nM DDR1, 20 nM Kinase Tracer 178, Ki from IC50 by Cheng-Prusoff, read-out: Ki DDR1.
The mark [5] stands for this setting: 5 nM DDR2, 10 nM Kinase Tracer 178, 1 hour at room temperature, IC50 converted in Ki using the Cheng-Prusoff equation, read-out: DDR2 Ki.
The mark [6] stands for this setting: 5 nM DDR1, 20 nM Kinase Tracer 178, 1 hour at room temperature, IC50 converted in Ki using the Cheng-Prusoff equation, read-out: DDR1 Ki.

Consider 16 compounds from patent US20240391936A1, “TETRAHYDROTHIENO PYRIDINE DERIVATIVES AS DDRS INHIBITORS” (CHIESI FARMACEUTICI S.P.A., priority 2021, published 2024).

The Ki is the equilibrium dissociation constant of an inhibitor or competing ligand from its target. As usually defined, the IC50 is the concentration at which inhibition is half-maximal. Higher therefore signals a need for much substance.

Like-named read-outs stand apart in the source and are kept apart here. A value given as a limit tells only on which side of the number the result lay.

For `CC1Cc2c(C(=O)Nc3cccc(C(F)(F)F)c3)csc2CN1Cc1cnc2cnccn12` (single isomer, unassigned) [Example 105, 6-(imidazo[1,2-a]pyrazin-3-ylmethyl)-5-methyl-N-(3-(trifluoromethyl)phenyl)-4,5,6,7-tetrahydrothieno[2,3-c]pyridine-3-carboxamide], the Ki at DDR2 (setting [3]) and on DDR1 [1] (setting [4]) was less than 25 nM in each case. In addition, the IC50 on DDR1 [2] is 50 to 80 nM.
As for `CC1c2scc(C(=O)Nc3cccc(C(F)(F)F)c3)c2CCN1Cc1cnc2[nH]ccc2c1` (single isomer, unassigned) [Example 107, 6-((1H-pyrrolo[2,3-b]pyridin-5-yl)methyl)-7-methyl-N-(3-(trifluoromethyl)phenyl)-4,5,6,7-tetrahydrothieno[2,3-c]pyridine-3-carboxamide], the Ki at DDR2 (setting [3]) and on DDR1 [1] (setting [4]) was less than 25 nM in each case. The IC50 on DDR1 [2] was less than 25 nM.
As to `Cc1ccc(-n2nc(C(C)(C)C)cc2NC(=O)c2csc3c2CCN(C(=O)c2cnc4ccccn24)C3)cc1` [Example 2, N-(3-(tert-butyl)-1-(p-tolyl)-1H-pyrazol-5-yl)-6-(imidazo[1,2-a]pyridine-3-carbonyl)-4,5,6,7-tetrahydrothieno[2,3-c]pyridine-3-carboxamide], the Ki at DDR2 (setting [3]) and on DDR1 [1] (setting [4]) was less than 25 nM in each case. At DDR1 [2], this compound displayed a half-inhibitory concentration (IC50) of 25 to 50 nM.
Consider `CC(C)(C)c1cc(NC(=O)c2csc3c2CCN(C(=O)c2cnc4ccccn24)C3)n(-c2ccc(F)cc2)n1` [Example 5, N-(3-(tert-butyl)-1-(4-fluorophenyl)-1H-pyrazol-5-yl)-6-(imidazo[1,2-a]pyridine-3-carbonyl)-4,5,6,7-tetrahydrothieno[2,3-c]pyridine-3-carboxamide], for which the Ki on DDR2 (setting [3]) and on DDR1 [1] (setting [4]) was less than 25 nM in each case. Further, the half-inhibitory concentration (IC50) on DDR1 [2] lay in the range of 25 to 50 nM.
On to `CC(C)(C)c1cc(NC(=O)c2csc3c2CCN(C(=O)c2cnc4ccccn24)C3)n(-c2ccccc2)n1` [Example 6, N-(3-(tert-butyl)-1-phenyl-1H-pyrazol-5-yl)-6-(imidazo[1,2-a]pyridine-3-carbonyl)-4,5,6,7-tetrahydrothieno[2,3-c]pyridine-3-carboxamide], for which the Ki on DDR2 (setting [3]) and on DDR1 [1] (setting [4]) was less than 25 nM throughout. In addition, the IC50 against DDR1 [2] was 25 to 50 nM.
`O=C(Nc1cc(F)cc(OC(F)(F)F)c1)c1csc2c1CCN(C(=O)c1cnc3ccccn13)C2` [Example 10, N-(3-fluoro-5-(trifluoromethoxy)phenyl)-6-(imidazo[1,2-a]pyridine-3-carbonyl)-4,5,6,7-tetrahydrothieno[2,3-c]pyridine-3-carboxamide]: the Ki on DDR2 (setting [3]) and on DDR1 [1] (setting [4]) was less than 25 nM each time. Besides, the IC50 against DDR1 [2] is less than 25 nM.
Consider `O=C(Nc1cc(CN2CCCC2)cc(C(F)(F)F)c1)c1csc2c1CCN(C(=O)c1cnc3ccccn13)C2` [Example 11], for which the Ki at DDR2 (setting [3]) and at DDR1 [1] (setting [4]) was less than 25 nM throughout. The same compound registered a half-inhibitory concentration (IC50) against DDR1 [2] of less than 25 nM.
As to `O=C(Nc1ccc(OC2COC2)c(C(F)(F)F)c1)c1csc2c1CCN(C(=O)c1cnc3ccccn13)C2` [Example 13, 6-(imidazo[1,2-a]pyridine-3-carbonyl)-N-(4-(oxetan-3-yloxy)-3-(trifluoromethyl)phenyl)-4,5,6,7-tetrahydrothieno[2,3-c]pyridine-3-carboxamide], the Ki at DDR2 (setting [3]) and on DDR1 [1] (setting [4]) was less than 25 nM in each case. On DDR1 [2], this compound showed an IC50 of less than 25 nM.
Take `O=C(Nc1ccc(OCC2COC2)c(C(F)(F)F)c1)c1csc2c1CCN(C(=O)c1cnc3ccccn13)C2` [Example 14, 6-(imidazo[1,2-a]pyridine-3-carbonyl)-N-(4-(oxetan-3-ylmethoxy)-3-(trifluoromethyl)phenyl)-4,5,6,7-tetrahydrothieno[2,3-c]pyridine-3-carboxamide]: the Ki on DDR2 (setting [3]) and at DDR1 [1] (setting [4]) was less than 25 nM throughout. For the same compound, the IC50 at DDR1 [2] was less than 25 nM.
In the case of `COCCOc1ccc(NC(=O)c2csc3c2CCN(C(=O)c2cnc4ccccn24)C3)cc1C(F)(F)F` [Example 15, 6-(imidazo[1,2-a]pyridine-3-carbonyl)-N-(4-(2-methoxyethoxy)-3-(trifluoromethyl)phenyl)-4,5,6,7-tetrahydrothieno[2,3-c]pyridine-3-carboxamide], the Ki at DDR2 (setting [3]) and on DDR1 [1] (setting [4]) was less than 25 nM throughout. The IC50 at DDR1 [2] is 25 to 50 nM.
On to `O=C(Nc1ccc(OCCO)c(C(F)(F)F)c1)c1csc2c1CCN(C(=O)c1cnc3ccccn13)C2` [Example 16, N-(4-(2-hydroxyethoxy)-3-(trifluoromethyl)phenyl)-6-(imidazo[1,2-a]pyridine-3-carbonyl)-4,5,6,7-tetrahydrothieno[2,3-c]pyridine-3-carboxamide], for which the Ki at DDR2 (setting [3]) and on DDR1 [1] (setting [4]) was less than 25 nM in each case. Further, on DDR1 [2], the IC50 is less than 25 nM.
Take `O=C(Nc1ccnc(C(F)(F)F)c1)c1csc2c1CCN(C(=O)c1cnc3ccccn13)C2` [Example 17, 6-(imidazo[1,2-a]pyridine-3-carbonyl)-N-(2-(trifluoromethyl)pyridin-4-yl)-4,5,6,7-tetrahydrothieno[2,3-c]pyridine-3-carboxamide]: the Ki on DDR2 (setting [3]) and on DDR1 [1] (setting [4]) was less than 25 nM in each case. The half-inhibitory concentration (IC50) against DDR1 [2] lay within 25 to 50 nM.
`CN1CCN(Cc2ccc(NC(=O)c3csc4c3CCN(C(=O)c3cnc5ccccn35)C4)cc2C(F)(F)F)CC1` [Example 18, 6-(imidazo[1,2-a]pyridine-3-carbonyl)-N-(4-((4-methylpiperazin-1-yl)methyl)-3-(trifluoromethyl)phenyl)-4,5,6,7-tetrahydrothieno[2,3-c]pyridine-3-carboxamide]: the Ki at DDR2 (setting [3]) and on DDR1 [1] (setting [4]) was less than 25 nM each time. Besides, the IC50 against DDR1 [2] fell in the range of 50 to 80 nM.
For the compound `CN(C)Cc1cc(NC(=O)c2csc3c2CCN(C(=O)c2cnc4ccccn24)C3)cc(C(F)(F)F)c1` [Example 19, N-(3-((dimethylamino)methyl)-5-(trifluoromethyl)phenyl)-6-(imidazo[1,2-a]pyridine-3-carbonyl)-4,5,6,7-tetrahydrothieno[2,3-c]pyridine-3-carboxamide], the Ki on DDR2 (setting [3]) and at DDR1 [1] (setting [4]) was less than 25 nM throughout. At DDR1 [2], this compound gave a half-inhibitory concentration (IC50) of less than 25 nM.
Take `CN1CCN(Cc2cc(NC(=O)c3cc4c(s3)CN(C(=O)c3cnc5ccccn35)CC4)cc(C(F)(F)F)c2)CC1` [Example C1, 6-(imidazo[1,2-a]pyridine-3-carbonyl)-N-(3-((4-methylpiperazin-1-yl)methyl)-5-(trifluoromethyl)phenyl)-4,5,6,7-tetrahydrothieno[2,3-c]pyridine-2-carboxamide]: the Ki is 531 nM at DDR2 (setting [5]) and 312 nM at DDR1 [1] (setting [6]).
For `CN1CCN(Cc2cc(NC(=O)c3cc4c(s3)CCN(C(=O)c3cnc5ccccn35)C4)cc(C(F)(F)F)c2)CC1` [Example C2, 5-(imidazo[1,2-a]pyridine-3-carbonyl)-N-(3-((4-methylpiperazin-1-yl)methyl)-5-(trifluoromethyl)phenyl)-4,5,6,7-tetrahydrothieno[3,2-c]pyridine-2-carboxamide], the Ki came out at 160 nM on DDR2 (setting [5]) and 195 nM on DDR1 [1] (setting [6]).
